PubChem BioAssay AID2740 (NMMLSC, 2010)
Active and inactive are the calls of the source.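 The calls were made as follows: active = compounds whose fitted half-maximal concentration for changing the GFP signal is at or below a set limit; inactive = the rest.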

Assay: TOR pathway RPL19A-GFP modulators, concentration series – cell-based, S. cerevisiae, flow cytometry, MLPCN hits, dose response (AID 2740);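 also: background is signal of the same compound in parental non-GFP s288c yeast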
Conditions: S. cerevisiae RPL19A-GFP strain, flow cytometry fluorescence, 3 h; at 33 µM (top of the series)

SMILES	GFP fluorescence, lower = active (kMESF (background-subtracted))
N/C(=N\OC(=O)c1cc(Br)ccc1Cl)c1ccccn1	39.8 (inactive)
Cc1ccc(/C=C/C(=O)c2ccc([N+](=O)[O-])o2)cc1	46.1 (inactive)
COC(=O)c1cc(N2C(=O)C3C(C2=O)C2(C)C=CC3(C)O2)ccc1Cl (stereo not drawn)	28.8 (inactive)
Cc1ccccc1C(=O)NNC(=S)NC(=O)c1ccc(Cl)cc1Cl	45.9 (inactive)
Cc1ccc(S(=O)(=O)/N=C(\Sc2ccccc2)c2ccccc2)cc1	42 (inactive)
COc1ccc(N2CCN(C(=O)c3ccc(Br)cc3)CC2)c([N+](=O)[O-])c1	47.4 (inactive)
CC(=O)N(C(C)=O)c1ncnc2c1c(-c1ccc(Cl)cc1)nn2C(C)(C)C	42.9 (inactive)
Cc1ccccc1N=Nc1ccc(O)c2ncccc12	36.9 (inactive)
O=C1c2cccc3c([N+](=O)[O-])ccc(c23)C(=O)N1CCc1ccccn1	47.1 (inactive)
O=C1c2cccc3c([N+](=O)[O-])ccc(c23)C(=O)N1O	49.9 (inactive)
Cc1cc(=O)oc2cc(Oc3ccc([N+](=O)[O-])cc3C(F)(F)F)ccc12	44.2 (inactive)
Cc1ccc(-c2nc(N)c3c(-c4ccc(C)cc4)nn(C(C)(C)C)c3n2)cc1	43.1 (inactive)
COc1ccccc1N=Nc1ccc(O)c2ncccc12	32.6 (inactive)
Cc1ccc(C)c(/C=C/C(=O)c2ccccc(=O)c2O)c1	15.8 (inactive)
CCCc1ccc(OCC(=O)NNC(=S)NC(=O)c2ccco2)cc1	30.3 (inactive)
CC(=O)NN1C(=O)/C(=C/c2ccc(Br)o2)SC1=S	40.5 (inactive)
CC(=O)N(\C=C/C=C/C=C1\Sc2ccccc2C1=O)c1ccccc1	56.1 (inactive)
O=c1/c(=C/c2cccc3ccccc23)sc2ncnn12	50.3 (inactive)
Cc1c(N2C(=O)/C(=C\c3ccccc3O)SC2=S)c(=O)n(-c2ccccc2)n1C	38.7 (inactive)
CCCc1cc(=O)oc2cc(C)cc(OCC(=O)NC3CC3)c12	39 (inactive)
CC1=C/C(=N\OS(=O)(=O)c2ccccc2)C(C(C)C)=CC1=O	21.4 (inactive)

SMILES	GFP fluorescence, lower = active (kMESF (background-subtracted))
Cc1ccc(/C=C2/SC(=S)N(C3CCCCC3)C2=O)o1	38.3 (inactive)
COc1ccc(C2=CC(=O)N(Nc3ccccc3)C2=O)cc1	34.6 (inactive)
CCCc1cc(N2CCN(c3ccccn3)CC2)n2nc(C)c(-c3ccccc3)c2n1	38.1 (inactive)
COc1cccc(N=Cc2nc(-c3ccccc3)oc2OC(C)=O)c1	41.9 (inactive)
CCOC(=O)CS(=O)(=O)c1nc(-c2ccc(F)cc2)cc(C(F)(F)F)n1	46.7 (inactive)
O=C(Nc1ccc(NC(=O)c2cc3ccccc3o2)cc1)c1ccco1	39.7 (inactive)
Cc1ccc2c(nc3s/c(=C\c4ccc(-c5ccccc5C(=O)O)o4)c(=O)n32)c1C	53.5 (inactive)
CC(=O)Oc1ccc(N2C(=O)C3C4C=CC(O4)C3C2=O)cc1 (stereo not drawn)	48.8 (inactive)
CC(Oc1cc2oc(=O)c3c(c2cc1Cl)CCC3)C(=O)NCCN1CCOCC1 (stereo not drawn)	37.8 (inactive)
O=C(NNC(=S)NC(=O)C12CC3CC(CC(C3)C1)C2)c1ccncc1	46.9 (inactive)
COc1cc(/C=C2/C(=O)ON=C2c2ccccc2)ccc1O	35.6 (inactive)
COc1ccc(NC(=O)/C(C#N)=C/c2ncc([N+](=O)[O-])n2C)c(OC)c1	41.5 (inactive)
CN(C)c1ccc(N=Cc2nc(-c3ccccc3)oc2OC(=O)c2ccccc2)cc1	44.1 (inactive)
O=C(NC(=S)NNC(=O)c1ccc(Cl)cc1Cl)c1cccnc1	18.7 (inactive)
Cc1cc2ccccn2c1C(=O)c1ccc([N+](=O)[O-])o1	20.7 (inactive)
Cc1[nH][nH]c(=O)c1C(c1ccc(-c2ccc(Cl)c(Cl)c2)o1)c1c(C)[nH][nH]c1=O	43.4 (inactive)
O=C1CC(c2ccccc2)=NN1c1nc(-c2ccccc2)cs1	19.4 (inactive)
O=C(/C=C/c1ccc(F)cc1)NC(=S)NNC(=O)c1cnccn1	36.8 (inactive)
Cn1c(=O)c(C(=O)NNC(=O)c2ccc(Br)cc2)c(O)c2ccccc21	22.3 (inactive)
O=C(NOC(=O)c1ccccc1)c1ccccc1	38.1 (inactive)
Cc1ccc(S(=O)(=O)N2CC(C(=O)O)=CC[C@H]2c2ccc(Cl)cc2)cc1	37.3 (inactive)

SMILES	GFP fluorescence, lower = active (kMESF (background-subtracted))
CC(=O)CSc1ncnc2c1cnn2-c1ccccc1	37.7 (inactive)
O=C1c2ccccc2C(=O)C2OC12 (stereo not drawn)	29.2 (inactive)
CCCS(=O)(=O)c1nnnn1-c1cccc(OC)c1	31.9 (inactive)
CS(=O)(=O)c1sc(C#N)c2c1C(=O)CC(c1ccccc1)C2 (stereo not drawn)	38.5 (inactive)
O=C(Oc1ccnc2cc(Cl)ccc12)N1CCOCC1	37.6 (inactive)
COc1ccc(C(=O)NC(=S)NNC(=O)c2cnccn2)cc1OC	38.6 (inactive)
COc1ccc(N2C(=O)C(Cl)=C(NCc3ccccc3)C2=O)cc1	44.3 (inactive)
Oc1c(C(Nc2nc3ccccc3s2)c2ccco2)ccc2cccnc12 (stereo not drawn)	43.4 (inactive)
CCCCCn1c(=O)c(C(=O)Nc2nc3ccccc3[nH]2)c(O)c2ccccc21	43.6 (inactive)
COc1cc(/C=C2\C(=O)ON=C2c2ccccc2)cc(Br)c1O	37.3 (inactive)
O=[N+]([O-])c1ccc(S(=O)(=O)c2ccccc2)nc1	29.6 (inactive)
COC(=O)CCC(=O)OC1(C)C(=O)C2=COC(c3ccc(OC)cc3)=CC2=C(Br)C1=O (stereo not drawn)	32.8 (inactive)
CCN(CC)c1ccc(/C=C2/C(=O)c3ccc(C(=O)O)cc3C2=O)cc1	38.3 (inactive)
Nc1ccccc1C#CC(=O)c1ccccc1	21 (inactive)
CC(C)C(=O)NC(c1cccs1)c1cc([N+](=O)[O-])c2cccnc2c1O (stereo not drawn)	31.9 (inactive)
COc1ccc(/C=C/C(=O)NC(=S)NNC(=O)c2cnccn2)cc1	49.2 (inactive)
Nc1c(C(=O)c2cccs2)sc2nsc(SCCN3CCCCC3)c12	38.1 (inactive)
CCOC(=O)CSC1=NC(=O)/C(=C/c2ccc(Br)cc2)S1	38.5 (inactive)
Cc1nn2c(NCc3ccccn3)c3c(nc2c1-c1ccccc1)CCC3	44.3 (inactive)
O=C(NNC(=S)NC(=O)c1ccco1)c1ccc(F)cc1	49.8 (inactive)
c1ccc(-c2csc(Nc3cccnc3)n2)nc1	36.5 (inactive)

SMILES	GFP fluorescence, lower = active (kMESF (background-subtracted))
C[n+]1ccc(/C=C/c2c[nH]c3ccccc23)cc1	53.8 (inactive)
CCOc1cc(C=C2C(=O)c3ccccc3C2=O)ccc1OCC(=O)Nc1ccc(C)cc1	43.8 (inactive)
Oc1c(CN2CCN(c3ccc(F)cc3)CC2)cc(Cl)c2cccnc12	40.4 (inactive)
Oc1c(I)cc(I)c2cccnc12	23 (inactive)
O=C(c1ccccc1)c1ccccc1N1C(=O)C=CC1=O	26 (inactive)
CCN(CC)c1ccc2cc(-c3nc4ccccc4[nH]3)c(=O)oc2c1	42.6 (inactive)
COc1cc(C=C2C(=O)c3ccccc3C2=O)cc(OC)c1	41.6 (inactive)
O=C1C=CC(=O)N1c1ccc(OC(F)F)cc1	14.7 (inactive)
O=C(COc1ccccc1)NNC(=S)NC(=O)c1ccccc1	44.4 (inactive)
Cc1ccc(C(=O)NNC(=S)NC(=O)c2ccco2)cc1	49.1 (inactive)
COC(=O)CCS(=O)(=O)c1nc(-c2ccccc2)cc(C(F)(F)F)n1	37.3 (inactive)
COc1ccc(-c2cc3nc4n(c(=O)c3s2)CCC4)cc1	21.6 (inactive)
COc1ccc(N=Nc2ccc(O)c3ncccc23)cc1	37.9 (inactive)
Cc1cccc2c1NC(=O)/C2=C\C(=O)c1cccs1	34.4 (inactive)
CS(=O)(=O)c1nc(-c2ccccc2)cc(C(F)(F)F)n1	31.9 (inactive)
CC(C)(C)c1cc(C(c2cccnc2)N2CCN(CCO)CC2)cc(C(C)(C)C)c1O (stereo not drawn)	4.63 (inactive)
N/C(Cc1ccc(Cl)cc1)=N\OC(=O)c1cccc2ccccc12	45.3 (inactive)
O=c1oc2cc(Oc3c([N+](=O)[O-])cc(C(F)(F)F)cc3[N+](=O)[O-])ccc2c2c1CCCC2	36.1 (inactive)
CCOc1ccccc1/C=c1\sc2ncnn2c1=O	30.1 (inactive)
CCCCc1ccc(NC(=O)CC(C)=O)cc1	47.2 (inactive)
